{"source": "patent US20070111258A1", "about": "“Compositions and methods for modulating the acute phase response” (priority 2005, published 2007)", "key": {"[1]": {"system": "BiP, CHOP, EDEM, spliced XBP1, SAP and CRP mRNAs", "experiment": "UPR and APR mRNA induction in mouse liver after injection (quantitative real-time RT-PCR)", "assay_type": "in vivo", "details": "intraperitoneal injection of Tm 2 mg/kg; 24 hours", "protocol": "Levels of spliced XBP1 mRNA were determined by quantitative real-time RT-PCR (lower panel). […] (B) Induction of CRP, SAP, BiP and spliced XBP1 mRNAs in mice injected with Tm. C57BU6J mice at 3-months of age were injected intraperitoneally with Tm (2 mg/kg body weight) in 150 mM dextrose solution. Mice were injected with the same volume of dextrose solution as a control. Liver tissues were collected from mice at 24 hours after injection for RNA isolation. (C-E) Induction of the BiP, CHOP, EDEM, spliced XBP1, SAP and CRP mRNAs in mice challenged with IL6, IL1β, LPS or Tm. Wild-type C57B1/6J mice at 3-months of age were intraperitoneally injected with recombinant murine IL6 (25 ng/gram body weight), recombinant murine IL1β (25 ng/gram body weight), LPS (3 μg/gram body weight) or Tm (2 μg/gram body weight). Mice were injected with the same volume of NaCL (for panels C and D) or dextrose (for panels E) solution as controls. At 24 hours after injection, liver samples were collected for isolating total RNA. Quantitative real-time RT-PCR was used to determine the mRNA levels. Fold changes of mRNA induction were determined after normalization of the mRNA levels to internal control 18S ribosomal RNA levels. Each bar denotes the mean±S.D., n=5 mice per injection.\nQuantitative real-time RT-PCR was performed as previously described (Back et al., 2005). Briefly, total cellular RNA prepared was reverse-transcribed to cDNA using a random primer (Applied Biosystems). The reaction mixture, containing SYBR Green PCR Master Mix (Applied Biosystems), was run in a 7900HT Fast Real-Time PCR System (Applied Biosystems). Real-time PCR primer sequences for quantification of murine XBP1 mRNA splicing are: the forward primer 5′-[sequence]-3′, and the reverse primer 5′-[sequence]-3′. Other primer sequences were designed by Primer Express (Applied Biosystems)."}, "ApoB mRNA": {"system": "ApoB mRNA", "experiment": "Endogenous ApoB mRNA in mouse liver", "assay_type": "in vivo", "details": "Tm 2 μg/gram body weight i.p.; liver at 24 hours", "protocol": "C57BL/6J mice at 3-months of age were injected intraperitoneally with Tm (2 μg/gram body weight) in 150 mM dextrose solution. Mice were injected with the same volume of dextrose solution as a control. Liver tissue were collected from mice at 24 hours after injection for RNA isolation. Quantitative real-time RT-PCR was used to determine the ApoB and the spliced XBP1 mRNA levels. Fold changes of mRNA induction were determined after normalization of the mRNA levels to internal control 18S ribosomal RNA levels. Data points are fold changes of the ApoB or spliced XBP1 mRNA levels for individuals, n=5 mice per injection."}, "[2]": {"system": "CREBH and ATF6 heterodimers", "experiment": "IP-Western blot of CREBH and ATF6 interaction in 293T cells", "assay_type": "cell-based, human", "details": "293T cells expressing flag-tagged CREBH; 8 hours after Tm treatment", "procedure": "FIG. 11 depicts the synergistic interaction of CREBH with ATF6 to activate transcription of the major APR genes. (A) Luciferase reporter analysis of trans-activation effects of CREBH on promoters of the murine SAP gene and the human CRP gene in H2.35 cells. H2.35 cells in a 35 mm collagen-coated plate were co-transfected with a control vector or a CREBH expression vector (0.25 μg), the luciferase reporter (0.6 μg) and pcDNA3-LacZ (0.25 μg), and were then cultured in the absence or presence of Tm (5 μg/ml) for 10 hours. (B) CREBH-DN efficiently suppresses CREBH trans-activation on the murine SAP and the human CRP promoters. […] (C) Interaction between ATF6 and CREBH was determined by IP-Western blot analysis. […] Expression levels of CREBH in the transfected cells were determined by Western blot analysis of total cell lysates using the anti-flag antibody (lower panel). […]\nFor analysis of expression and cleavage of CREBH protein, total cell lysates were prepared from H2.35 cells or COS7 cells using Nonidet P-40 lysis buffer (1% NP-40, 50 mM Tris-HCl at pH 7.5, 150 mM NaCl, 0.05% SDS) supplemented with protease inhibitors (Complete Mini from Roche Applied Science), 0.1 mM sodium vanadate, and 1 mM sodium fluoride. […] The total cell lysate, membrane and nuclear fractions were subjected to SDS-PAGE and then analyzed by Western blot using anti-flag monoclonal antibody or other antibodies. […]"}}}
{"substance": "tunicamycin [Tm]", "values": [{"measurement": "expression of APR genes and UPR genes in the livers of mice", "setting": "[1]", "value": "induced expression of both the APR genes and the UPR genes"}, {"measurement": "induction of endogenous ApoB mRNA in mice", "setting": "ApoB mRNA", "value": "only slightly increased"}, {"measurement": "interaction between CREBH and ATF6", "setting": "[2]", "value": "significantly increased"}]}
